Values after ≈ are worked out from the molar mass of the structure shown.
Experiments:
Hepatitis C virus [1] = experiment: Inhibition of HCV 1b NS5B polymerase; design: species or system Hepatitis C virus subtype 1b
Hepatitis C virus [2] = experiment: Antiviral activity against HCV 1b in Huh-7/2209-23 cells by replicon assay; format: functional, organism-based, Hepacivirus hominis; details: genotype 1b
[3] = Aqueous solubility of compound; format: physicochemical; details: buffer

| SMILES | IC50 (Hepatitis C virus [1]) [µM] | IC50 (Hepatitis C virus [2]) [µM] | solubility [3] [µg/mL] |
| --- | --- | --- | --- |
| O=S1(=O)N=C(c2nc(Cc3ccc(F)cc3)c3ccccc3c2O)c2cccc(-c3cncnc3)c21 | 1.8 | 0.38 | 9 (≈ 18.1 µM) |
| O=S1(=O)N=C(c2nc(Cc3ccc(F)cc3)c3ccccc3c2O)c2cccc(-c3cccnc3)c21 | 0.55 | 0.15 | 3 (≈ 6.05 µM) |
| O=S1(=O)N=C(c2nc(Cc3ccc(F)cc3)c3ccccc3c2O)c2cccc(-c3cn[nH]c3)c21 | 0.72 | 0.78 | – |
| O=S1(=O)N=C(c2nc(Cc3ccc(F)cc3)c3ccccc3c2O)c2cccc(-c3cccc(O)c3)c21 | 0.35 | 1.1 | 3 (≈ 5.88 µM) |
| COc1cccc2c1S(=O)(=O)N=C2c1nc(Cc2ccc(F)cc2)c2ccccc2c1O | 0.61 | 0.76 | 40 (≈ 89.2 µM) |
| O=S1(=O)N=C(c2nc(CCC3CC3)c3ccccc3c2O)c2ccccc21 | 1 | 2.7 | 10 (≈ 26.4 µM) |
| O=S1(=O)N=C(c2nc(Cc3ccc(F)cc3)c3ccccc3c2O)c2ccccc21 | – | 0.44 | 16 (≈ 38.2 µM) |
| CC(=O)Nc1cccc(-c2cccc3c2S(=O)(=O)N=C3c2nc(Cc3ccc(F)cc3)c3ccccc3c2O)c1 | 0.53 | 0.94 | 17 (≈ 30.8 µM) |
| O=S1(=O)N=C(c2nc(Cc3ccccc3)c3ccccc3c2O)Nc2ccccc21 | 47 | – | – |
| CC(C)CCc1nc(C2=NS(=O)(=O)c3ccccc32)c(O)c2ccccc12 | 4.5 | – | – |
| O=c1ccc(-c2cccc3c2S(=O)(=O)N=C3c2nc(Cc3ccc(F)cc3)c3ccccc3c2O)c[nH]1 | 0.41 | 0.075 | 7 (≈ 13.7 µM) |
| CC(C)CCc1nc(C2=NS(=O)(=O)c3ccccc3N2)c(O)c2ccccc12 | 51 | – | – |
| O=S1(=O)N=C(c2nc(Cc3ccc(F)cc3)c3ccccc3c2O)c2cccc(-c3ccccc3)c21 | 3.9 | 0.8 | 41 (≈ 82.9 µM) |
| O=c1cccc(-c2cccc3c2S(=O)(=O)N=C3c2nc(Cc3ccc(F)cc3)c3ccccc3c2O)[nH]1 | 0.73 | 0.4 | 6 (≈ 11.7 µM) |
| O=S1(=O)N=C(c2nc(Cc3ccc(F)cc3)c3ccccc3c2O)c2cccc(Cl)c21 | 0.58 | 0.43 | 2 (≈ 4.42 µM) |
